Reference: ChEMBL document CHEMBL3813652, “Arabinoamidine synthesis and its inhibition toward β-glucosidase (sweet almonds) in comparison to a library of galactonoamidines” (Bioorg Med Chem, 2016)
Active and inactive are the calls of the source. The rule behind the calls is not given here.

Legend:
[1] = Inhibition of sweet almond beta-glucosidase assessed as enzyme mediated hydrolysis of 2-chloro-4-nitrophenyl beta-D-glucopyranoside preincubated with substrate for 30 mins followed by protein addition measured every 10 secs for 10 mins by UV-visible spectroscopy; set-up: species or system Prunus dulcis
[2] = Inhibition of sweet almond beta-glucosidase assessed as enzymatic hydrolysis of 2-chloro-4-nitrophenyl beta-D-glucopyranoside preincubated with substrate for 20 mins followed by protein addition by UV-visible spectroscopy; set-up: species or system Prunus dulcis
[3] = system: Prunus dulcis; assay: Competitive inhibition of sweet almond beta-glucosidase assessed as enzymatic hydrolysis of 2-chloro-4-nitrophenyl beta-D-glucopyranoside at 0.0125 and 0.025 uM by Lineweaver-Burk plot
[4] = system: Prunus dulcis; assay: Competitive inhibition of sweet almond beta-glucosidase assessed as enzymatic hydrolysis of 2-chloro-4-nitrophenyl beta-D-glucopyranoside at 200 and 1200 uM by Lineweaver-Burk plot

| SMILES | Ki [1] [µM] | IC50 [2] [µM] | inhibition [3] | inhibition [4] |
| --- | --- | --- | --- | --- |
| CCCCC(CC)CNC1=N[C@H](CO)[C@H](O)[C@H](O)[C@H]1O (stereo partly drawn) | 17.2 | 2.5 |  |  |
| Cc1cccc(C/N=C2\N[C@H](CO)[C@H](O)[C@H](O)[C@H]2O)c1 | 293 | 5.1 |  |  |
| CC(C)(C)c1ccc(C/N=C2\N[C@H](CO)[C@H](O)[C@H](O)[C@H]2O)cc1 | 14.7 | 2.3 |  |  |
| O=C1N[C@H](CO)[C@H](O)[C@H](O)[C@H]1O |  | > 1000 |  |  |
| Cc1ccccc1C/N=C1\N[C@H](CO)[C@H](O)[C@H](O)[C@H]1O | 26.2 | 8.4 |  |  |
| OC[C@H]1N/C(=N\Cc2ccccc2F)[C@H](O)[C@@H](O)[C@H]1O | 118 | 1.8 |  |  |
| COc1ccc(C/N=C2\N[C@H](CO)[C@H](O)[C@H](O)[C@H]2O)cc1 | 55.9 | 13 |  |  |
| Cc1ccc(CNC2=N[C@H](CO)[C@H](O)[C@H](O)C2)cc1 | 7.7 | > 5000 |  |  |
| CO[C@@H]1[C@H](O)[C@@H](O)C(NCc2ccc(C)cc2)=N[C@@H]1CO | 13 | > 5000 |  |  |
| OC[C@H]1N/C(=N\Cc2cccc(F)c2)[C@H](O)[C@@H](O)[C@H]1O | 124 | 11 |  |  |
| Cc1ccc(CNC2=N[C@H](CO)[C@@H](O)[C@@H]2O)cc1 | 970 | 6200 | Active | Active |
| N=C1N[C@H](CO)[C@H](O)[C@H](O)[C@H]1O |  | > 1000 |  |  |
| CCCCCCCCCCCC/N=C1\N[C@H](CO)[C@H](O)[C@H](O)[C@H]1O | 20.5 | 0.4 |  |  |
| CO[C@H]1C(NCc2ccc(C)cc2)=N[C@H](CO)[C@H](O)[C@@H]1O | 5 | > 5000 |  |  |
| OC[C@H]1N/C(=N\Cc2ccc(C(F)(F)F)cc2)[C@H](O)[C@@H](O)[C@H]1O | 87.9 | 2.8 |  |  |
| OC[C@H]1N/C(=N\CCCc2ccccc2)[C@H](O)[C@@H](O)[C@H]1O | 28.1 | 1.3 |  |  |

Second part, the compound after the results:

| Ki [1] [µM] | IC50 [2] [µM] | inhibition [3] | inhibition [4] | SMILES |
| --- | --- | --- | --- | --- |
| 11.5 | 19 |  |  | OC[C@H]1N/C(=N\CC2CC2)[C@H](O)[C@@H](O)[C@H]1O |
| 11.8 | 32 |  |  | OC[C@H]1N/C(=N\C2CC2)[C@H](O)[C@@H](O)[C@H]1O |
| 18.7 | 4.8 |  |  | CCC/N=C1\N[C@H](CO)[C@H](O)[C@H](O)[C@H]1O |
| 0.026 | 3 | Active | Active | Cc1ccc(C/N=C2\N[C@H](CO)[C@H](O)[C@H](O)[C@H]2O)cc1 |
| 27.1 | 5 |  |  | OC[C@H]1N/C(=N\CC2CCCCCC2)[C@H](O)[C@@H](O)[C@H]1O |
| 57.5 | 4.7 |  |  | OC[C@H]1N/C(=N\Cc2ccc(F)cc2)[C@H](O)[C@@H](O)[C@H]1O |
| 49.2 | 1.6 |  |  | OC[C@H]1N/C(=N\CC2CCCCC2)[C@H](O)[C@@H](O)[C@H]1O |
|  | > 5000 |  |  | OC[C@H]1N/C(=N\C2CCCCC2)[C@H](O)[C@@H](O)[C@H]1O |
| 29.6 | 2.2 |  |  | CCCCCCC/N=C1\N[C@H](CO)[C@H](O)[C@H](O)[C@H]1O |
| 108 | 2.8 |  |  | OC[C@H]1N/C(=N\Cc2ccccc2)[C@H](O)[C@@H](O)[C@H]1O |
